Test results from ChEMBL document CHEMBL1201862, “PubChem BioAssay data set” (2004).
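Assay format: 96-well plates, 48-hour exposure. GI50: concentration for 50% inhibition of growth.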 Active and inactive are the calls of the source. Rule as the data show it: active = GI50 up to about 1.1 µM and inactive = higher.

Assays:
Test in all cases: growth of human tumour cells (NCI), 48 h
IGROV-1 = test system: IGROV-1
PC-3 = test system: PC-3
SNB-19 = test system: SNB-19
786-0 = test system: 786-0
SF-539 = test system: SF-539
MOLT-4 = test system: MOLT-4
SNB-75 = test system: SNB-75
OVCAR-4 = test system: OVCAR-4
U-251 = test system: U-251
OVCAR-3 = test system: OVCAR-3
Hs-578T = test system: Hs-578T
EKVX = test system: EKVX
OVCAR-8 = test system: OVCAR-8
SW-620 = test system: SW-620
A549 = test system: A549
HOP-92 = test system: HOP-92
NCI-H23 = test system: NCI-H23
UACC-62 = test system: UACC-62
NCI-H460 = test system: NCI-H460
HCC 2998 = test system: HCC 2998

Measured: GI50

Cc1ncn(-c2ccccc2O)c1C
inactive: IGROV-1 > 100 µM | PC-3 > 100 µM | SNB-19 > 100 µM | 786-0 > 100 µM | SF-539 > 100 µM | MOLT-4 > 100 µM | SNB-75 > 100 µM | OVCAR-4 > 100 µM | U-251 > 100 µM | OVCAR-3 > 100 µM | Hs-578T > 100 µM | EKVX > 100 µM | OVCAR-8 > 100 µM | SW-620 > 100 µM | A549 > 100 µM | HOP-92 > 100 µM | NCI-H23 > 100 µM | UACC-62 > 100 µM

COc1cc2c(c(O)c1OC)C(=O)[C@@H]1CCC(=O)N1C2c1ccccc1 (stereo partly drawn)
inactive: IGROV-1 > 100 µM | NCI-H460 > 100 µM | PC-3 31.8 µM | SNB-19 > 100 µM | 786-0 > 100 µM | SF-539 > 100 µM | MOLT-4 36 µM | SNB-75 35.6 µM | OVCAR-4 > 100 µM | U-251 63.1 µM | OVCAR-3 65.6 µM | HCC 2998 > 100 µM | Hs-578T 40.5 µM | EKVX 51.9 µM | OVCAR-8 57.5 µM | SW-620 > 100 µM | A549 59 µM | NCI-H23 > 100 µM | UACC-62 44.5 µM

C=CCC(NCc1ccccc1)[C@H](OCc1ccccc1)[C@@H]1COC(C)(C)O1 (stereo partly drawn)
inactive: IGROV-1 35.8 µM | PC-3 31.9 µM | SNB-19 72.8 µM | 786-0 30.4 µM | MOLT-4 23.7 µM | SNB-75 49 µM | OVCAR-4 44.7 µM | U-251 37.6 µM | OVCAR-3 44.9 µM | Hs-578T 24.7 µM | EKVX 32.5 µM | OVCAR-8 35.2 µM | SW-620 41.9 µM | A549 39 µM | HOP-92 12.7 µM | NCI-H23 28.3 µM | UACC-62 40.6 µM

CCOC(=O)c1c(NS(=O)(=O)c2ccc(Br)cc2)sc2c1CCCC2
inactive: IGROV-1 4.21 µM | NCI-H460 6.4 µM | PC-3 5.41 µM | SNB-19 7.46 µM | 786-0 9.31 µM | SF-539 7.91 µM | MOLT-4 4.91 µM | SNB-75 4.11 µM | OVCAR-4 30.1 µM | U-251 12.4 µM | OVCAR-3 3.93 µM | HCC 2998 16.7 µM | Hs-578T 4.43 µM | EKVX 4.52 µM | OVCAR-8 5.89 µM | SW-620 16.5 µM | A549 7.78 µM | NCI-H23 6.34 µM | UACC-62 6.46 µM

CCOC(=O)c1nnsc1NC(=O)Nc1ccc(Cl)cc1
inactive: IGROV-1 31 µM | NCI-H460 7 µM | PC-3 33 µM | SNB-19 > 100 µM | 786-0 21.1 µM | MOLT-4 > 100 µM | SNB-75 21.1 µM | OVCAR-4 21.1 µM | U-251 > 100 µM | OVCAR-3 43.2 µM | HCC 2998 38.5 µM | Hs-578T 30.1 µM | EKVX 42 µM | OVCAR-8 18.5 µM | SW-620 > 100 µM | A549 43 µM | NCI-H23 32.8 µM | UACC-62 71 µM

CCCC1C(=O)Nc2cccc3ncn(c23)C1=O (stereo not drawn)
inactive: IGROV-1 > 100 µM | NCI-H460 > 100 µM | PC-3 > 100 µM | SNB-19 > 100 µM | 786-0 > 100 µM | SF-539 > 100 µM | MOLT-4 > 100 µM | SNB-75 28.8 µM | OVCAR-4 > 100 µM | U-251 > 100 µM | OVCAR-3 > 100 µM | Hs-578T > 100 µM | EKVX > 100 µM | OVCAR-8 > 100 µM | SW-620 > 100 µM | A549 > 100 µM | HOP-92 > 100 µM | NCI-H23 > 100 µM | UACC-62 > 100 µM

CNC(=S)N/N=C(C)\C(=N/NC(=S)NC)c1ccccc1
inactive: IGROV-1 27.8 µM | NCI-H460 25.7 µM | PC-3 30.9 µM | SNB-19 70.3 µM | 786-0 50 µM | SF-539 > 100 µM | SNB-75 69.8 µM | OVCAR-3 86.9 µM | HCC 2998 > 100 µM | Hs-578T 17.8 µM | EKVX 38 µM | A549 29.2 µM | NCI-H23 > 100 µM | UACC-62 > 100 µM

Cc1cc(OCc2nnc3n2N=C(c2cc(F)c(Cl)cc2Cl)/C(=C/c2ccc(-c4ccc(Cl)cc4)o2)S3)ccc1Cl
inactive: IGROV-1 12.1 µM | NCI-H460 29.5 µM | PC-3 14.6 µM | SNB-19 > 50 µM | 786-0 > 50 µM | MOLT-4 > 50 µM | U-251 > 50 µM | OVCAR-3 30.5 µM | HCC 2998 19 µM | Hs-578T > 50 µM | EKVX 16.3 µM | OVCAR-8 > 50 µM | SW-620 32.9 µM | A549 > 50 µM | NCI-H23 26.7 µM | UACC-62 18.2 µM

OC1(c2ccccc2)CC2CCC(C1)N2CCCC1(c2ccc(F)cc2)OCCO1 (stereo not drawn)
inactive: IGROV-1 > 100 µM | PC-3 22.5 µM | 786-0 18.2 µM | SF-539 > 100 µM | MOLT-4 47.2 µM | SNB-75 > 100 µM | OVCAR-4 > 100 µM | U-251 > 100 µM | OVCAR-3 > 100 µM | Hs-578T > 100 µM | EKVX > 100 µM | OVCAR-8 16.3 µM | SW-620 > 100 µM | A549 > 100 µM | NCI-H23 > 100 µM | UACC-62 > 100 µM

CN(C)S(=O)(=O)c1ccc(Nc2ccc(O)c3c2C(=O)c2c([N+](=O)[O-])ccc(O)c2C3=O)cc1
inactive: IGROV-1 > 100 µM | NCI-H460 > 100 µM | PC-3 > 100 µM | SNB-19 > 100 µM | 786-0 > 100 µM | MOLT-4 35.5 µM | SNB-75 > 100 µM | OVCAR-4 > 100 µM | U-251 > 100 µM | OVCAR-3 > 100 µM | Hs-578T > 100 µM | EKVX > 100 µM | OVCAR-8 > 100 µM | SW-620 92.3 µM | A549 > 100 µM | HOP-92 > 100 µM | NCI-H23 > 100 µM | UACC-62 > 100 µM

Cc1cc(S(=O)(=O)Nc2nc(N)nc(N3N=CCC3C)n2)c(SCC(=O)O)cc1Cl (stereo not drawn)
inactive: IGROV-1 > 10 µM | NCI-H460 > 10 µM | PC-3 > 10 µM | SNB-19 > 10 µM | 786-0 > 10 µM | SF-539 > 10 µM | MOLT-4 > 10 µM | SNB-75 > 10 µM | OVCAR-4 > 10 µM | U-251 > 10 µM | OVCAR-3 > 10 µM | HCC 2998 > 10 µM | Hs-578T > 10 µM | EKVX > 10 µM | OVCAR-8 > 10 µM | SW-620 > 10 µM | A549 > 10 µM | NCI-H23 > 10 µM | UACC-62 > 10 µM
